# In patent US20240398811A1, “PRC2 INHIBITORS FOR USE IN TREATING BLOOD DISORDERS” (ORIC Pharmaceuticals, Inc., priority 2021, published 2024):
# Target: purified human, His-tagged PRC2 complex (Homo sapiens (Human), UniProt O75530)
# Experiment: Hot Spot HMT assay, inhibition of PRC2 enzymatic activity
# Assay type: biochemical
# Conditions: 10 nM PRC2 complex, 1 μM 3H-SAM, core histone H3, 10-point dose-response
# Method in brief: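 Five-subunit PRC2 complex (EZH2, EED, SUZ12, AEBP2, RbAp48; 10 nM) preincubated 20 min at 30° C with compound (top 1.0 μM) and 0.05 mg/ml core histone H3 in Tris-HCl, 1% DMSO. Started with 1 μM [3H]SAM, 1 hr at 30° C; tritiated H3 measured by filter binding and scintillation.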
# purified human, His-tagged PRC2 complex, sequence (O75530 whole entry): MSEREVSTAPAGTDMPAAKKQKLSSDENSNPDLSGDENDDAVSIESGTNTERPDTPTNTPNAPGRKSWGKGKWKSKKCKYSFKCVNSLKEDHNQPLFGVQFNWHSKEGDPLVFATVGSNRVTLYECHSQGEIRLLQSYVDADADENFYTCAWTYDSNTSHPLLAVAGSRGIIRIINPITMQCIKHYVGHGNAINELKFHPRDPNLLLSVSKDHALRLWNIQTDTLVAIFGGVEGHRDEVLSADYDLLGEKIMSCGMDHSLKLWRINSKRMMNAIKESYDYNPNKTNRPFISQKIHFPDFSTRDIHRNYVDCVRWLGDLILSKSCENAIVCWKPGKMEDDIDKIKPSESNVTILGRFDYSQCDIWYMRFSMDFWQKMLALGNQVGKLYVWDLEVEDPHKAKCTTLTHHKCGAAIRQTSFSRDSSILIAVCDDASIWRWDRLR
# purified human, His-tagged PRC2 complex, sequence (Q15910 whole entry partner): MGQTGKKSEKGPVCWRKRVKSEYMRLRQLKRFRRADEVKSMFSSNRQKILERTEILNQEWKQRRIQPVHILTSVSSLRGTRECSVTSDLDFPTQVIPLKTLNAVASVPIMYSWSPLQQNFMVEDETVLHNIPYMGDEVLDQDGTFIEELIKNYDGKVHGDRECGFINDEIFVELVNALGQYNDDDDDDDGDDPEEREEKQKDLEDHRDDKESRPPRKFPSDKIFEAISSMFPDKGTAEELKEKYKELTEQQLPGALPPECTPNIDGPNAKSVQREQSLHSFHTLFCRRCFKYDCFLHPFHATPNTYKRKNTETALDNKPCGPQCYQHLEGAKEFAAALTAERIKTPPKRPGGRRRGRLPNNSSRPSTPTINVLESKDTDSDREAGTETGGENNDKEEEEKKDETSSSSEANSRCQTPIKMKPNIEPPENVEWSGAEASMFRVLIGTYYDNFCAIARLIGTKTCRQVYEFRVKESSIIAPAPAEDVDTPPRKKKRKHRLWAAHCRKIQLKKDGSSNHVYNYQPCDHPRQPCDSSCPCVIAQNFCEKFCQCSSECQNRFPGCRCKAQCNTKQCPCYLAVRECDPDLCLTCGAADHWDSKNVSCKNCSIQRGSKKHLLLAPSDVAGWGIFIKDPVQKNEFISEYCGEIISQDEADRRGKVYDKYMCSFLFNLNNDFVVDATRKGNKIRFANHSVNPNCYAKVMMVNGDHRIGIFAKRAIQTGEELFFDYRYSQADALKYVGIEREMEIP
# purified human, His-tagged PRC2 complex, sequence (Q15022 whole entry partner): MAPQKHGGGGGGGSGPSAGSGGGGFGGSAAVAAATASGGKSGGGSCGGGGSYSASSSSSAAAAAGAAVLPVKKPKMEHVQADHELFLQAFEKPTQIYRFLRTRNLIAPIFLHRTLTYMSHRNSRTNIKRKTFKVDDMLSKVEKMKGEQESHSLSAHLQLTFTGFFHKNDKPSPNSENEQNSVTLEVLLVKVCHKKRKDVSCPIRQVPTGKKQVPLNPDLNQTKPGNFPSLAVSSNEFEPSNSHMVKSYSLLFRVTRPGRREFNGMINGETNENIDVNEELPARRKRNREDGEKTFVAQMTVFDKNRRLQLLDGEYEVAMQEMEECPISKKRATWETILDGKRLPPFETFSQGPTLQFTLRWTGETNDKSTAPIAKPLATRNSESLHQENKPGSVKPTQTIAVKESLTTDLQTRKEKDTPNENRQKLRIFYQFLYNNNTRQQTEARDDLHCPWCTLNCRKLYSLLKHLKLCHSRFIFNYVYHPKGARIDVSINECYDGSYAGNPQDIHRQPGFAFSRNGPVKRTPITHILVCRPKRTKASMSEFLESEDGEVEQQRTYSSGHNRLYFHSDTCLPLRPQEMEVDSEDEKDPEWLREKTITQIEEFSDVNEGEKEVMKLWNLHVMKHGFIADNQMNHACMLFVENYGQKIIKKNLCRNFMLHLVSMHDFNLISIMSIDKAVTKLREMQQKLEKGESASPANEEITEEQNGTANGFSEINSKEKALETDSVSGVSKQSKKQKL
# purified human, His-tagged PRC2 complex, sequence (Q6ZN18 whole entry partner): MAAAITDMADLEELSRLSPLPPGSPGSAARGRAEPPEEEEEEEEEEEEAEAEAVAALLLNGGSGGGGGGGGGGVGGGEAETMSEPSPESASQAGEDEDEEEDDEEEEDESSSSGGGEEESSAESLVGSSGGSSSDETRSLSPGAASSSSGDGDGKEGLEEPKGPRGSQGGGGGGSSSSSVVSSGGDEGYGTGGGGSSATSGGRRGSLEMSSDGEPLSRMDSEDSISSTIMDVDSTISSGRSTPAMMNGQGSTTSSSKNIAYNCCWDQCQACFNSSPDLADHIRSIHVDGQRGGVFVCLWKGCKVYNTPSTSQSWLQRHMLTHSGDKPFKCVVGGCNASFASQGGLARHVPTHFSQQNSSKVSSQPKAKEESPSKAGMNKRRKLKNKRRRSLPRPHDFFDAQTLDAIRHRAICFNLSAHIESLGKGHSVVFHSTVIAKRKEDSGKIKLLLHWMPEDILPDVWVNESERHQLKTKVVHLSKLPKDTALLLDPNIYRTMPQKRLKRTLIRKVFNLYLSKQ
# purified human, His-tagged PRC2 complex, sequence (Q09028 whole entry partner): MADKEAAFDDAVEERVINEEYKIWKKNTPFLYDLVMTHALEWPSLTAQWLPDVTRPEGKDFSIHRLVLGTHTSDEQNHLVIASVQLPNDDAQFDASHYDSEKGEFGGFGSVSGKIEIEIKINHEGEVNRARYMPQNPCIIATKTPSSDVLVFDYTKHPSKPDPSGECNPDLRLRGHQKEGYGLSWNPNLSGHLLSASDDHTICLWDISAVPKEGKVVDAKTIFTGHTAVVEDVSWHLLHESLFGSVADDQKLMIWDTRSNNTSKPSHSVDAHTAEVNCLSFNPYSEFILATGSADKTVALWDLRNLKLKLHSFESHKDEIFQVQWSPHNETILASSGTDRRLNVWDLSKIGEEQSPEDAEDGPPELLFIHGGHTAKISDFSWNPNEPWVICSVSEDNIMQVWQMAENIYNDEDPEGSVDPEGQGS
row,IC50 [nM],SMILES
1,< 100,"Cc1ncccc1-c1cnc(NCc2c(F)ccc3c2CCO3)n2cc(C#N)nc12 [Example 105, 5-(((5-fluoro-2,3-dihydrobenzofuran-4-yl)methyl)amino)-8-(2-methylpyridin-3-yl)imidazo[1,2-c]pyrimidine-2-carbonitrile]"
2,100 to 500,"N#Cc1cn2c(NCc3c(F)ccc4c3CCO4)ncc(-c3cnn(C4COC4)c3)c2n1 [Example 106, 5-(((5-fluoro-2,3-dihydrobenzofuran-4-yl)methyl)amino)-8-(1-(oxetan-3-yl)-1H-pyrazol-4-yl)imidazo[1,2-c]pyrimidine-2-carbonitrile]"
3,100 to 500,"N#Cc1cn2c(NCc3c(F)ccc4c3CCO4)ncc(-c3cnn(C4CCOC4)c3)c2n1 (centres unmarked) [Example 107, 5-(((5-fluoro-2,3-dihydrobenzofuran-4-yl)methyl)amino)-8-(1-(tetrahydrofuran-3-yl)-1H-pyrazol-4-yl)imidazo[1,2-c]pyrimidine-2-carbonitrile]"
4,< 100,"N#Cc1cn2c(NCc3c(F)ccc4c3CCO4)ncc(-c3cnn(CC(F)(F)F)c3)c2n1 [Example 108, 5-(((5-fluoro-2,3-dihydrobenzofuran-4-yl)methyl)amino)-8-(1-(2,2,2-trifluoroethyl)-1H-pyrazol-4-yl)imidazo[1,2-c]pyrimidine-2-carbonitrile]"
5,< 100,"N#Cc1cn2c(NCc3c(F)ccc4c3CCO4)ncc(-c3cnccc3Cl)c2n1 [Example 109, 8-(4-chloropyridin-3-yl)-5-(((5-fluoro-2,3-dihydrobenzofuran-4-yl)methyl)amino)imidazo[1,2-c]pyrimidine-2-carbonitrile]"
6,< 100,"Cc1ncncc1-c1cnc(NCc2c(F)ccc3c2CCO3)n2cc(C#N)nc12 [Example 110, 5-(((5-fluoro-2,3-dihydrobenzofuran-4-yl)methyl)amino)-8-(4-methylpyrimidin-5-yl)imidazo[1,2-c]pyrimidine-2-carbonitrile]"
7,< 100,"Cn1nc(C(F)(F)F)cc1-c1cnc(NCc2c(F)ccc3c2CCO3)n2cc(C#N)nc12 [Example 111, 5-(((5-fluoro-2,3-dihydrobenzofuran-4-yl)methyl)amino)-8-(1-methyl-3-(trifluoromethyl)-1H-pyrazol-5-yl)imidazo[1,2-c]pyrimidine-2-carbonitrile]"
8,< 100,"CN(C)Cc1ccc(-c2cnc(NCc3c(F)ccc4c3CCO4)n3cc(C#N)nc23)cc1 [Example 112, 8-(4-((dimethylamino)methyl)phenyl)-5-(((5-fluoro-2,3-dihydrobenzofuran-4-yl)methyl)amino)imidazo[1,2-c]pyrimidine-2-carbonitrile]"
9,< 100,"COc1cc(-c2cnc(NCc3c(F)ccc4c3CCO4)n3cc(C#N)nc23)ccn1 [Example 113, 5-(((5-fluoro-2,3-dihydrobenzofuran-4-yl)methyl)amino)-8-(2-methoxypyridin-4-yl)imidazo[1,2-c]pyrimidine-2-carbonitrile]"
10,< 100,"Cn1nccc1-c1cnc(NCc2c(F)ccc3c2CCO3)n2cc(C#N)nc12 [Example 114, 5-(((5-fluoro-2,3-dihydrobenzofuran-4-yl)methyl)amino)-8-(1-methyl-1H-pyrazol-5-yl)imidazo[1,2-c]pyrimidine-2-carbonitrile]"
11,< 100,"CN1CCN(C(=O)c2ccc(-c3cnc(NCc4c(F)ccc5c4CCO5)n4cc(C#N)nc34)cc2)CC1 [Example 115, 5-(((5-fluoro-2,3-dihydrobenzofuran-4-yl)methyl)amino)-8-(4-(4-methylpiperazine-1-carbonyl)phenyl)imidazo[1,2-c]pyrimidine-2-carbonitrile]"
12,< 100,"N#Cc1cn2c(NCc3c(F)ccc4c3CCO4)ncc(-c3ccc(C4CC4)nc3)c2n1 [Example 116, 8-(6-cyclopropylpyridin-3-yl)-5-(((5-fluoro-2,3-dihydrobenzofuran-4-yl)methyl)amino)imidazo[1,2-c]pyrimidine-2-carbonitrile]"
13,100 to 500,"COCCn1cc(-c2cnc(NCc3c(F)ccc4c3CCO4)n3cc(C#N)nc23)cn1 [Example 117, 5-(((5-fluoro-2,3-dihydrobenzofuran-4-yl)methyl)amino)-8-(1-(2-methoxyethyl)-1H-pyrazol-4-yl)imidazo[1,2-c]pyrimidine-2-carbonitrile]"
14,< 100,"N#Cc1cn2c(NCc3c(F)ccc4c3CCO4)ncc(-c3cnn(C4CCCCO4)c3)c2n1 (centres unmarked) [Example 118, 5-(((5-fluoro-2,3-dihydrobenzofuran-4-yl)methyl)amino)-8-(1-(tetrahydro-2H-pyran-2-yl)-1H-pyrazol-4-yl)imidazo[1,2-c]pyrimidine-2-carbonitrile]"
15,100 to 500,"CCn1cc(-c2cnc(NCc3c(F)ccc4c3CCO4)n3cc(C#N)nc23)cn1 [Example 119, 8-(1-ethyl-1H-pyrazol-4-yl)-5-(((5-fluoro-2,3-dihydrobenzofuran-4-yl)methyl)amino)imidazo[1,2-c]pyrimidine-2-carbonitrile]"
16,> 500,"N#Cc1cn2c(NCc3c(F)ccc4c3CCO4)ncc(-c3cnn(C4CCOCC4)c3)c2n1 [Example 120, 5-(((5-fluoro-2,3-dihydrobenzofuran-4-yl)methyl)amino)-8-(1-(tetrahydro-2H-pyran-4-yl)-1H-pyrazol-4-yl)imidazo[1,2-c]pyrimidine-2-carbonitrile]"
17,< 100,"CC(C)(O)Cn1cc(-c2cnc(NCc3c(F)ccc4c3CCO4)n3cc(C#N)nc23)cn1 [Example 121, 5-(((5-fluoro-2,3-dihydrobenzofuran-4-yl)methyl)amino)-8-(1-(2-hydroxy-2-methylpropyl)-1H-pyrazol-4-yl)imidazo[1,2-c]pyrimidine-2-carbonitrile]"
18,> 500,"Cc1cc(-c2cnc(NCc3c(F)ccc4c3CCCO4)n3cc(C#N)nc23)n(C)n1 [Example 122, 8-(1,3-dimethyl-1H-pyrazol-5-yl)-5-(((6-fluorochroman-5-yl)methyl)amino)imidazo[1,2-c]pyrimidine-2-carbonitrile]"
19,< 100,"COc1cc(-c2cnc(NCc3c(F)ccc4c3CCO4)n3cc(C#N)nc23)c(F)cn1 [Example 123, 5-(((5-fluoro-2,3-dihydrobenzofuran-4-yl)methyl)amino)-8-(5-fluoro-2-methoxypyridin-4-yl)imidazo[1,2-c]pyrimidine-2-carbonitrile]"
20,< 100,"CCOc1ncccc1-c1cnc(NCc2c(F)ccc3c2CCO3)n2cc(C#N)nc12 [Example 124, 8-(2-ethoxypyridin-3-yl)-5-(((5-fluoro-2,3-dihydrobenzofuran-4-yl)methyl)amino)imidazo[1,2-c]pyrimidine-2-carbonitrile]"
21,< 100,"COc1cc(-c2cnc(NCc3c(F)ccc4c3CCO4)n3cc(C#N)nc23)c(OC)cn1 [Example 125, 8-(2,5-dimethoxypyridin-4-yl)-5-(((5-fluoro-2,3-dihydrobenzofuran-4-yl)methyl)amino)imidazo[1,2-c]pyrimidine-2-carbonitrile]"
22,100 to 500,"N#Cc1cn2c(NCc3c(F)ccc4c3CCO4)ncc(-c3ccc(C(F)(F)F)nc3)c2n1 [Example 126, 5-(((5-fluoro-2,3-dihydrobenzofuran-4-yl)methyl)amino)-8-(6-(trifluoromethyl)pyridin-3-yl)imidazo[1,2-c]pyrimidine-2-carbonitrile]"
23,< 100,"N#Cc1cn2c(NCc3c(F)ccc4c3CCO4)ncc(-c3ccc(N)nc3)c2n1 [Example 127, 8-(6-aminopyridin-3-yl)-5-(((5-fluoro-2,3-dihydrobenzofuran-4-yl)methyl)amino)imidazo[1,2-c]pyrimidine-2-carbonitrile]"
